The test system of assay [1] is bleomycin-induced pulmonary fibrosis and pulmonary hypertension. The following applies: through inhibition of ROS generation and RhoA/Rho kinase activation (Hemnes et al. 2008); cited from earlier work.
The subject of assay [2] is patients with pulmonary fibrosis. The settings on record: open-label trials (Ghofrani 2002; Collard 2007); cited from earlier work.
Assay [3] concerns bleomycin-induced lung fibrosis. The settings on record: in-vivo, bleomycin-induced lung fibrosis model in mice (Cortijo et al. 2009); cited from earlier work.
In the next assay the target is T1, PDE4B1 (Homo sapiens, UniProt Q07343).
T1 construct: made in house; host or cells: SF21 insect cells (baculovirus; pCR-Bac vector)
In words: Inhibition of PDE4B1 activity (SPA, [3H]cAMP). The assay is classed as biochemical. The settings on record: recombinant PDE4B1 expressed in SF21 cells; 0.5 pM [sic] cAMP; values given as bins; read-out: PDE4B1 inhibitory values measured as −logIC50 (converted). The method, boiled down: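 Recombinant human PDE4B1 (Sf21 cell 1000 g supernatant) in 20 mM Tris pH 7.4, 0.1 mg/ml BSA, 5 mM Mg2+, […] with [3H]cAMP tracer, enzyme giving 10-20% conversion. After 5 min preincubation at 37 °C, 15 min reaction, stopped by SPA beads with IBMX; IC50 by non-linear regression.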

For the next assay, the target named is T2, human PDE5 (Homo sapiens, UniProt O76074).
T2 construct: from tissue; host or cells: human platelets from fresh donor blood (10,000 g supernatant of sonicated platelets)
In words: Inhibition of PDE5 activity (SPA, [3H]cGMP, platelet lysate). The following applies: PDE5 from human platelet lysate; values given as bins; read-out: PDE5A inhibitory values measured as −logIC50 (converted). The assay is classed as biochemical. The method, boiled down:
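Human platelet lysate served as PDE5 source, with 1 μM motapizone and 10 nM PDE2 inhibitor present; […] plus [3H]cGMP tracer, pH 7.4, 5 mM Mg2+, 10-20% substrate turnover. After 5 min preincubation, 15 min at 37 °C, stopped with SPA beads and IBMX; IC50 by non-linear regression.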

T1 sequence (Q07343 whole entry): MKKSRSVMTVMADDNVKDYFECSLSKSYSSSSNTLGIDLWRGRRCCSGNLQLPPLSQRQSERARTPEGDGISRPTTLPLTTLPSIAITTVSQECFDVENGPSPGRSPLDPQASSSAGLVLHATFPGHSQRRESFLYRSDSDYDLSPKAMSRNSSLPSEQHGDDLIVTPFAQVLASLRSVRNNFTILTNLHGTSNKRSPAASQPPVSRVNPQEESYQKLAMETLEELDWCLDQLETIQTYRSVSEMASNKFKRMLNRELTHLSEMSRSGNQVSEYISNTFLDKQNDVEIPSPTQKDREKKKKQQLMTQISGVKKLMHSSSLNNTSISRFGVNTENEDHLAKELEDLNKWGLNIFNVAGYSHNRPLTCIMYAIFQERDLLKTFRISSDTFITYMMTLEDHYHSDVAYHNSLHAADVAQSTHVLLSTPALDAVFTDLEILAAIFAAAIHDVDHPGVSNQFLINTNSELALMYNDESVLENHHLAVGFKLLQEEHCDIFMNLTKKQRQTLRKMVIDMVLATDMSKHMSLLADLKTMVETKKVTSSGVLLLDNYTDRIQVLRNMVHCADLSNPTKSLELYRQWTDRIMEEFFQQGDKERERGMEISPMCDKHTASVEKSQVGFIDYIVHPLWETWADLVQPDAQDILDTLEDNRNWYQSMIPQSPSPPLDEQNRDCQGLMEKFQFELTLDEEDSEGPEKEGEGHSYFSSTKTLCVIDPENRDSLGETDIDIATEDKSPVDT

Consider `CCCc1nn(C)c2c(=O)[nH]c(-c3cc(S(=O)(=O)N4CCN(C)CC4)ccc3OCC)nc12` [sildenafil], for which the “bleomycin-induced pulmonary fibrosis and pulmonary hypertension” value in assay [1] was “attenuates bleomycin-induced pulmonary fibrosis and pulmonary hypertension”. For the same molecule, in assay [2], the exercise tolerance entry is given as “increases exercise tolerance”; the “lung hemodynamic (vascular resistance and ventilation/perfusion matching)” value is listed as “improves lung hemodynamic”.
In the case of `O=C(Nc1c(Cl)cncc1Cl)c1ccc(OC(F)F)c(OCC2CC2)c1` [roflumilast], the fibrosis development result in assay [3] is “inhibit fibrosis development”.
Regarding `CCOc1cc2c(cc1OC)C(c1cccc(C(=O)N3CCC(n4c(=O)c5sc(-c6ccc(F)cc6)cc5n(Cc5nnn(CC)n5)c4=O)CC3)c1)=N[C@@H]1CCSC[C@H]21` [Example 41, 3-[1-({3-[(4aR,10bR)-9-ethoxy-8-methoxy-3,4,4a,10b-tetrahydro-1H-thiopyrano[4,3-c]isoquinolin-6-yl]phenyl}carbonyl)piperidin-4-yl]-1-[(2-ethyl-2H-tetrazol-5-yl)methyl]-6-(4-fluorophenyl)thieno[3,2-d]pyrimidine-2,4(1H,3H)-dione], the IC50 on PDE4B1 was more than 10 nM; on human PDE5 it was less than 10 nM.
For `CCOc1cc2c(cc1OC)C(c1ccc(C(=O)N3CCC(n4c(=O)c5sc(-c6ccccc6F)cc5n(Cc5nc(CC)no5)c4=O)CC3)cc1)=N[C@@H]1CCSC[C@H]21` [Example 48, 3-[1-({4-[(4aR,10bR)-9-ethoxy-8-methoxy-3,4,4a,10b-tetrahydro-1H-thiopyrano[4,3-c]isoquinolin-6-yl]phenyl}carbonyl)piperidin-4-yl]-1-[(3-ethyl-1,2,4-oxadiazol-5-yl)methyl]-6-(2-fluorophenyl)thieno[3,2-d]pyrimidine-2,4(1H,3H)-dione] the same measures were 1 to 10 nM and less than 10 nM.
The matching figures for `CCOc1cc2c(cc1OC)C(c1cccc(C(=O)N3CCC(n4c(=O)c5sc(-c6cc(F)ccc6OC)cc5n(Cc5nnn(CC)n5)c4=O)CC3)c1)=N[C@@H]1CCSC[C@H]21` [Example 35, 3-[1-({3-[(4aR,10bR)-9-ethoxy-8-methoxy-3,4,4a,10b-tetrahydro-1H-thiopyrano[4,3-c]isoquinolin-6-yl]phenyl}carbonyl)piperidin-4-yl]-1-[(2-ethyl-2H-tetrazol-5-yl)methyl]-6-(5-fluoro-2-methoxyphenyl)thieno[3,2-d]pyrimidine-2,4(1H,3H)-dione]: 1 to 10 nM and less than 10 nM.
The matching figures for `CCOc1cc2c(cc1OC)C(c1ccc(C(=O)N3CCC(n4c(=O)c5sc(-c6ccccc6)cc5n(Cc5cc(C)on5)c4=O)CC3)cc1)=N[C@@H]1CCSC[C@H]21` [Example 6, 3-[1-({4-[(4aR,10bR)-9-ethoxy-8-methoxy-3,4,4a,10b-tetrahydro-1H-thiopyrano[4,3-c]isoquinolin-6-yl]phenyl}carbonyl)piperidin-4-yl]-1-[(5-methylisoxazol-3-yl)methyl]-6-phenylthieno[3,2-d]pyrimidine-2,4(1H,3H)-dione]: 1 to 10 nM and 10 to 100 nM.
Consider `CCOc1cc2c(cc1OC)C(c1ccc(C(=O)N3CCC(n4c(=O)c5sc(-c6ccccc6)cc5n(Cc5csc(C)n5)c4=O)CC3)cc1)=N[C@@H]1CCSC[C@H]21` [Example 10, 3-[1-({4-[(4aR,10bR)-9-ethoxy-8-methoxy-3,4,4a,10b-tetrahydro-1H-thiopyrano[4,3-c]isoquinolin-6-yl]phenyl}carbonyl)piperidin-4-yl]-1-[(2-methyl-1,3-thiazol-4-yl)methyl]-6-phenylthieno[3,2-d]pyrimidine-2,4(1H,3H)-dione], for which the values for the IC50 on PDE4B1 and on human PDE5 were 1 to 10 nM and more than 100 nM, respectively.
On to `CCOc1cc2c(cc1OC)C(c1ccc(C(=O)N3CCC(n4c(=O)c5sc(-c6ccccc6)cc5n(Cc5noc(C)n5)c4=O)CC3)cc1)=N[C@@H]1CCSC[C@H]21` [Example 2, 3-[1-({4-[(4aR,10bR)-9-ethoxy-8-methoxy-3,4,4a,10b-tetrahydro-1H-thiopyrano[4,3-c]isoquinolin-6-yl]phenyl}carbonyl)piperidin-4-yl]-1-[(5-methyl-1,2,4-oxadiazol-3-yl)methyl]-6-phenylthieno[3,2-d]pyrimidine-2,4(1H,3H)-dione], for which the values for the IC50 at PDE4B1 and on human PDE5 were 1 to 10 nM and less than 10 nM, respectively.
On to `CCOc1cc2c(cc1OC)C(c1ccc(C(=O)N3CCC(n4c(=O)c5sc(-c6ccccc6)cc5n(Cc5nnc(CC)o5)c4=O)CC3)cc1)=N[C@@H]1CCSC[C@H]21` [Example 4, 3-[1-({4-[(4aR,10bR)-9-ethoxy-8-methoxy-3,4,4a,10b-tetrahydro-1H-thiopyrano[4,3-c]isoquinolin-6-yl]phenyl}carbonyl)piperidin-4-yl]-1-[(5-ethyl-1,3,4-oxadiazol-2-yl)methyl]-6-phenylthieno[3,2-d]pyrimidine-2,4(1H,3H)-dione], for which the IC50 on PDE4B1 is less than 1 nM; on human PDE5, 10 to 100 nM.
The matching figures for `CCOc1cc2c(cc1OC)C(c1ccc(C(=O)N3CCC(n4c(=O)c5sc(-c6ccccc6)cc5n(Cc5cnc(CC)o5)c4=O)CC3)cc1)=N[C@@H]1CCSC[C@H]21` [Example 9, 3-[1-({4-[(4aR,10bR)-9-ethoxy-8-methoxy-3,4,4a,10b-tetrahydro-1H-thiopyrano[4,3-c]isoquinolin-6-yl]phenyl}carbonyl)piperidin-4-yl]-1-[(2-ethyl-1,3-oxazol-5-yl)methyl]-6-phenylthieno[3,2-d]pyrimidine-2,4(1H,3H)-dione]: 1 to 10 nM and 10 to 100 nM.
For `CCOc1cc2c(cc1OC)C(c1ccc(C(=O)N3CCC(n4c(=O)c5sc(-c6ccccc6)cc5n(Cc5nc(CCCOC)no5)c4=O)CC3)cc1)=N[C@@H]1CCSC[C@H]21` [Example 50, 3-[1-({4-[(4aR,10bR)-9-ethoxy-8-methoxy-3,4,4a,10b-tetrahydro-1H-thiopyrano[4,3-c]isoquinolin-6-yl]phenyl}carbonyl)piperidin-4-yl]-1-{[3-(3-methoxypropyl)-1,2,4-oxadiazol-5-yl]methyl}-6-phenylthieno[3,2-d]pyrimidine-2,4(1H,3H)-dione] the same measures were less than 1 nM and 10 to 100 nM.

The values above are taken from US9018175B2 (Takeda GmbH, priority 2009, dated 2015).
